{"source": "paper PMC8692993", "about": "“PPARα and PPARγ activation is associated with pleural mesothelioma invasion but therapeutic inhibition is ineffective” (iScience, 2021)", "key": {"PPARγ [1]": {"target": "T1, PPARγ (Homo sapiens, UniProt P37231)", "T1 sequence (P37231 238-503 limits assumed)": "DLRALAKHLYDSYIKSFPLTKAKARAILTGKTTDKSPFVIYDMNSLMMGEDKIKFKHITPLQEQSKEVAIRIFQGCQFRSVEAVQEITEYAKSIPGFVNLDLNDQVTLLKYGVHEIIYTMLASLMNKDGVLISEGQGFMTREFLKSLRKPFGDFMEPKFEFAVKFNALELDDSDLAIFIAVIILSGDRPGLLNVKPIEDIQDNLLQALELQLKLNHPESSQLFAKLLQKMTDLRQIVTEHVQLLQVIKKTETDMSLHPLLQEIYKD", "design": "method as in Leesnitzer et al., 2002", "details": "displacement of [3H]rosiglitazone, incubation time 1 h, ref Leesnitzer et al., 2002, read-out: Lit. Binding assay, IC50; cited from earlier work"}, "PPARα [2]": {"target": "T2, PPARα (Homo sapiens, UniProt Q07869)", "T2 sequence (Q07869 239-466 limits assumed)": "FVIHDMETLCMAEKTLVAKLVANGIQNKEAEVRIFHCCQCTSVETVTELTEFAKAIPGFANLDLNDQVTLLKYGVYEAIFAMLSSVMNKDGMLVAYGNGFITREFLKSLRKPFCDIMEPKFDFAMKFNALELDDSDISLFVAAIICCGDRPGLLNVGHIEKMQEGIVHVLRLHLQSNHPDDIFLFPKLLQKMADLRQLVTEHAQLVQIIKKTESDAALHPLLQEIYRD", "test": "HG5LN reporter cell assay, PPARα-mediated transcription", "type": "cell-based", "design": "expressed in transfected cells; host or cells: HG5LN (HeLa-derived, GAL4RE-luciferase)", "from_the_text": "(§1) Nuclear receptors, including PPARα and γ, are ligand-inducible transcription factors that form heterodimers with retinoid X receptors and bind to specific DNA sites located in the enhancer/promoter region of target genes, releasing co-repressors and/or recruiting co-activators ([Wang, 2010]). We therefore assessed the functional consequences of the ligands on PPARα and γ-mediated transcriptional activation in reporter cell lines. These cell lines were generated as previously reported by a two-step transfection procedure ([Seimandi et al., 2005]). First, a stable cell line, HG5LN, expressing the reporter gene (GAL4RE-luciferase) was developed from the HeLa cell line. These cells were then transfected with a plasmid expressing the C-terminal ligand-binding domain of PPARα or γ fused to GAL4 DNA-binding domain. The parental HG5LN cells were used as a control to test non-specific modulation of luciferase expression by the small molecules investigated (Figure S4A). The HG5LN PPAR reporter cells therefore allow comparison of the functional activity at, and selectivity of different ligands for, PPARα and γ. […] As expected ([Abu Aboud et al., 2015]), GW6471 potently antagonized PPARα (Figure 4E and Table 1).\n(§2) A transfected […] cell line HG5LN was used ([Balaguer et al., 2001]). These cells were cultured in Dubecco's modified Eagle's medium (DMEM-F12 Thermo Fisher Scientific) with phenol red and supplemented with 5% foetal calf serum, incubated at 37°C in a 5% CO2/95% air-humidified atmosphere. Luciferase assays were performed in DMEM-F12 (Thermo Fisher Scientific) without phenol red and supplemented with 5% dextran-coated charcoal-stripped FCS (test culture medium), puromycin (Thermo Fisher Scientific) 0.5 μg/mL and geneticin (Thermo Fisher Scientific) 1 mg/mL. Cells were seeded at a density of 5 x 10^4 cells/well and incubated for 8 h at 37°C in a 96-well plate white opaque tissue culture plates (Becton-Dickinson). Tested compounds were added in serial dilutions and incubated for 16 h at 37°C. After incubation, the medium containing the effectors was carefully removed and replaced by culture medium containing 3 x 10^−4 mol/L luciferin (Sigma Chemicals). After 5 min incubation at room temperature, the 96-well plate was then read with a Microbeta Wallac luminometer and the luminescence was measured in the living cells for 2 s. All experiments were performed in quadruplicate."}, "PPARγ [3]": {"target": "T1, PPARγ", "test": "HG5LN reporter cell assay, PPARγ-mediated transcription", "type": "cell-based", "design": "expressed in transfected cells; host or cells: HG5LN (HeLa-derived, GAL4RE-luciferase)", "from_the_text": "as §1, §2"}, "PPARγ [4]": {"target": "T1, PPARγ", "design": "expressed in transfected cells; host or cells: HG5LN (HeLa-derived, GAL4RE-luciferase); method as in Seimandi et al., 2005", "details": "inhibition of agonism by 20 nM rosiglitazone (BRL49653), ref Seimandi et al., 2005, read-out: Functionality, Lit. IC50; cited from earlier work"}, "PPARγ [5]": {"target": "T1, PPARγ", "test": "LanthaScreen TR-FRET binding assay, PPARγ", "details": "2 h incubation, mean of 3 replicates ± SEM", "method": "(§3) The LanthaScreen™ TR-FRET binding assay was performed following the manufacturer's guidelines (PV4894, Invitrogen) as follows, 20 mM stock solution of the ligand or control in DMSO were serially diluted using 100% DMSO to produce a range of concentrations from 100 μM to 1 pM. The test compound solutions were mixed with the reaction buffer in a 1 (ligand) in 10 (reaction buffer) dilution for a final 2X ligand concentration. This was mixed with the reaction components (glutathione S-transferase (GST)-PPPARγLBD (0.5 nM)/, terbium (Tb)-labelled anti-GST antibody (5 nM) and Fluormone pan-PPAR green (5 nM for PPARγ; 20 nM for PPARα) at room temperature in a ratio of 8 μLl 2X ligand solution: 4 μLl of 4XFluormone: and 4 μLl 4X GST-PPPARγLBD/terbium (Tb)-labelled anti-GST antibody to produce a final reaction mixture volume of 16 μL. The concentration of DMSO in the final reaction mixture was 5%. The reaction mixture was kept at room temperature for 2 h prior to recording the TR-FRET emission spectra using a CLARIOstar Plus microplate reader (BMG Labtech). […] Results are expressed as the ratio of fluorescence intensity at 520 nm (Fluormone emission) and 490 nm (Tb emission). […] For each compound three serial dilutions were prepared and measured separately. The IC50 and SEM values were determined using a sigmoidal dose-response equation with varying slope using GraphPad Prism."}, "PPARα [6]": {"target": "T2, PPARα", "design": "method as in Leesnitzer et al., 2002", "details": "displacement of [3H]GW2331, incubation time 1 h, ref Leesnitzer et al., 2002, read-out: Lit. Binding assay, IC50; cited from earlier work"}, "PPARα [7]": {"target": "T2, PPARα", "test": "LanthaScreen TR-FRET binding assay, PPARα", "details": "2 h incubation, mean of 3 replicates ± SEM", "method": "as §3"}, "PPARα [8]": {"target": "T2, PPARα", "design": "expressed in transfected cells; host or cells: HG5LN (HeLa-derived, GAL4RE-luciferase); method as in Seimandi et al., 2005", "details": "ref Seimandi et al., 2005, cited from earlier work"}, "[9]": {"tested_on": "SC model of melanoma or a metastatic model of lung cancer", "design": "method as in Zou et al., 2019", "details": "ref Zou et al., 2019; cited from earlier work"}, "[10]": {"tested_on": "brain metastases from melanoma and breast cancer", "design": "method as in Zou et al., 2019", "details": "murine models; ref Zou et al., 2019; cited from earlier work"}, "AE17": {"tested_on": "AE17", "test": "MTT cell metabolic activity assay, AE17", "type": "cell-based, mouse", "details": "AE17, arachidonic acid 5 and 10 μM, p <0.05", "method": "(§4) Cells were harvested and seeded in 96-flat well plates (Corning) at a density of 5 x 10^4 cells/mL overnight. Media was removed and 100 μL media with GW6471 or GW9662 at indicated concentrations was added to each well. Cell viability and toxicity were measured at 48 h. Cells were incubated with 50 μL of a 2 mg/mL solution of (3-(4,5-dimethyl-thiazole-2-yl)-2,5-[…] tetrazolium (MTT, Sigma-Aldrich) in PBS for 4 h and then exposed to 100 μL dimethyl sulfoxide (DMSO; Sigma-Aldrich). Cell viability was measured by absorption at 570 nm in a microplate spectrophotometer (Spectromax 250 plate reader). Results are shown as relative cell viability."}, "AB1": {"tested_on": "AB1", "test": "MTT cell metabolic activity assay, AB1", "type": "cell-based, mouse", "details": "AB1, arachidonic acid 5 and 10 μM, p <0.05", "method": "as §4"}, "[11]": {"tested_on": "HAP1, HAP1 PPARA KO, and HAP1 PPARG KO cell lines", "test": "MTT cell metabolic activity assay, HAP1 lines", "type": "cell-based, human", "details": "arachidonic acid 5 and 10 μM, p <0.0001", "method": "as §4"}, "VGE62": {"tested_on": "VGE62", "test": "MTT cell metabolic activity assay, VGE62", "type": "cell-based, human", "details": "VGE62, arachidonic acid 5 and 10 μM, p <0.05", "method": "as §4"}}, "note": "Read-outs that look alike come from different tables or passages of the source.", "data": [{"smiles": "O=C(Nc1ccccc1)c1cc([N+](=O)[O-])ccc1Cl", "note": "[GW9662]", "values": [{"measurement": "IC50", "setting": "PPARγ [1]", "result": "5.4 ± 0.6", "unit": "nM"}, {"measurement": "Functionality, Type", "setting": "PPARα [2]", "result": "partial agonist"}, {"measurement": "IC50", "setting": "PPARα [2]; inhibition of agonism by 10 nM GW7647, 16 h incubation, mean of 3 experiments ± SEM", "result": "131 ± 31", "unit": "nM"}, {"measurement": "Functionality, Type", "setting": "PPARγ [3]", "result": "antagonist"}, {"measurement": "IC50", "setting": "PPARγ [3]; inhibition of agonism by 30 nM rosiglitazone, 16 h incubation, mean of 3 experiments ± SEM", "result": "4 ± 2.6", "unit": "nM"}, {"measurement": "IC50", "setting": "PPARγ [4]", "result": "3.8 ± 1.3", "unit": "nM"}, {"measurement": "IC50", "setting": "PPARγ [5]", "result": "12.4 ± 3.6", "unit": "nM"}, {"measurement": "IC50", "setting": "PPARα [6]", "result": "39 ± 4", "unit": "nM"}, {"measurement": "IC50", "setting": "PPARα [7]", "result": "214 ± 64.6", "unit": "nM"}, {"measurement": "EC50", "setting": "PPARα [8]; PPARα partial agonism, read-out: Functionality, Lit. EC50", "result": "26 ± 9", "unit": "nM"}, {"measurement": "IC50", "setting": "PPARα [8]; PPARα, inhibition of agonism by 30 nM GW7647, read-out: Functionality, Lit. IC50", "result": "188 ± 43", "unit": "nM"}, {"measurement": "Maximal activity reached (partial agonism)", "setting": "PPARα [8]; PPARα", "result": "j 33% of maximal activity ([Seimandi et al., 2005])."}]}, {"smiles": "O=C(Nc1ccncc1)c1cc([N+](=O)[O-])ccc1Cl", "note": "[T0070907]", "values": [{"measurement": "Tumor growth", "setting": "[9]", "result": "did not find an inhibitory effect on tumor growth"}, {"measurement": "Brain metastases", "setting": "[10]", "result": "significant decrease of brain metastases from melanoma and breast cancer"}]}, {"smiles": "CCCCC/C=C\\C/C=C\\C/C=C\\C/C=C\\CCCC(=O)O", "note": "[arachidonic acid]", "values": [{"measurement": "Proliferation (MTT)", "setting": "AE17", "result": "increased proliferation in a concentration-dependent manner"}, {"measurement": "Proliferation (MTT)", "setting": "AB1", "result": "increased proliferation in a concentration-dependent manner"}, {"measurement": "Proliferation (MTT) in HAP1 parental versus PPARA/PPARG KO cells", "setting": "[11]", "result": "significant increase in proliferation, but only in the HAP1 parental cell line"}, {"measurement": "Proliferation (MTT)", "setting": "VGE62", "result": "increased proliferation in a concentration-dependent manner"}]}]}
